A short description of the series: Cytotoxicity assay (AlamarBlue) in mock infected MT-2 cells. The series is classed as cell-based. The following applies: human. The protocol:
The present assay was used to screen candidate antiviral compounds by quantification of virus spread and production over several rounds of infection in vitro. MT-2, a HIV-1 permissive human T-cell line, was seeded in microtiter plates and was simultaneously treated with serially diluted compound and inoculated with a HIV-1 NL4-3 viral clone engineered to express Renilla luciferase in place of Nef. Following treatment, the culture was incubated for 96 hours. After the incubation, media was collected and used to estimate relative infectivity on the indicator cell line, TZM-bl. Additionally, viral spread was quantified by measuring luciferase activity via a commercially available luciferase substrate. In parallel, MT-2 cells were seeded and inoculated with mock virus in the presence of serially diluted compound. Compound toxicity was quantified 96 hours after treatment with AlamarBlue.
MT-2 (NIH Aids reagent program 237) cells were grown and maintained in an incubator at 37° C. with 5% CO2 using a basal medium of RPMI-1640 supplemented with 10% FBS. Cells were seeded in 100 μl at 2×10^4 cells/well in white walled 96-well microtiter plates. Candidate compounds were 3-fold serially diluted in the appropriate solvent. Solvent without compound was used as a no drug reference. Cells were inoculated at a multiplicity of 0.027 with an HIV-1 NL4-3 virus stock engineered to express Renilla luciferase in place of Nef. Diluted virus stock was first added to serially diluted compound. Compound and virus were delivered to cells in an equal volume (100 μl) and treated cultures were returned to the incubator for 96 hours. In parallel, plates for cytotoxicity estimates were prepared in the same way except cells were plated in clear walled 96-well microtiter plates and were mock infected.
At 96 hours post treatment, 20 μl AlamarBlue proliferation reagent was added to 200 μl treated and mock infected cultures and incubated for 3 hours at 37° C. with 5% CO2 then read at 545, 590 nm on fluorescence plate reader (Biotek).
For all assays, data was imported into Accelrys Assay Explorer 3.3. In Assay Explorer, % inhibition (antiviral or cytotoxicity) was calculated using the solvent control as a reference by the following equation: 1−(SignalCompound/SignalReference). The % Inhibition and compound concentration data was fitted using the following 4-parameter logistic model (Assay Explorer model 42):
[formula] where X is compound concentration, Y is % inhibition, D is the maximum % Inhibition (constrained to 100%), C is IC50 value or inflection point, B is the hill slope, and A is the minimum % inhibition (constrained to 0%). The IC50 value is reported as the EC50 or CC50 depending on the assay endpoint. EC50 represents the effective concentration at which virus replication is inhibited by 50 percent. CC50 represents the concentration that results in the death of 50 percent of the host cells. The selectivity or therapeutic index (SI or TI), is the ratio of CC50 over EC50 and represents the relative effectiveness in inhibiting viral replication compared to inducing cell death.

[1] abbreviates: mock infected MT-2 cells, 96 hours, AlamarBlue, read-out: CC50.

Like-named read-outs stand apart in the source and are kept apart here.

As for `COc1cc2c(cc1OCc1ccccc1)CCNC2/C=C/c1ccc(-c2cccnc2)cc1` (stereo not drawn) [DJ, 6-(benzyloxy)-7-methoxy-1-[(E)-2-[4-(pyridin-3-yl)phenyl]ethenyl]-1,2,3,4-tetrahydroisoquinoline], the CC50 at 96 h was determined as 5.86 µM.
In turn, `COc1cc2c(cc1OCc1ccccc1)CCNC2/C=C/c1ccc(-n2ccnc2)cc1` (stereo not drawn) [DK, 6-(benzyloxy)-1-[(E)-2-[4-(1H-imidazol-1-yl)phenyl]ethenyl]-7-methoxy-1,2,3,4-tetrahydroisoquinoline] had a CC50 at 96 h of 9.13 µM.
For `COc1cc2c(cc1OCc1ccccc1)CCNC2/C=C/c1ccc2cccnc2c1` (stereo not drawn) [DL, 7-[(E)-2-[6-(benzyloxy)-7-methoxy-1,2,3,4-tetrahydroisoquinolin-1-yl]ethenyl]quinoline], it took 7 µM to reach half-maximal cytotoxicity (CC50 at 96 h).
Molecule `COc1cc2c(cc1OCc1ccccc1)CCNC2/C=C/c1ccc(-n2ccnc2C)cc1` (stereo not drawn) [DM, 6-(benzyloxy)-7-methoxy-1-[(E)-2-[4-(2-methyl-1H-imidazol-1-yl)phenyl]ethenyl]-1,2,3,4-tetrahydroisoquinoline] had a CC50 at 96 h of 21.1 µM.
For `COc1cccc(-c2ncc(/C=C/C3NCCc4cc(OCc5ccccc5)c(OC)cc43)cn2)c1` (stereo not drawn) [DN, 6-(benzyloxy)-7-methoxy-1-[(E)-2-[2-(3-methoxyphenyl)pyrimidin-5-yl]ethenyl]-1,2,3,4-tetrahydroisoquinoline], it took 17.1 µM to reach half-maximal cytotoxicity (CC50 at 96 h).
Still for that read-out and setting: next, `CCN1CCN(c2ccc(/C=C/C3NCCc4cc(OCc5ccccc5)c(OC)cc43)cc2)CC1` (stereo not drawn) [DO, 6-(benzyloxy)-1-[(E)-2-[4-(4-ethylpiperazin-1-yl)phenyl]ethenyl]-7-methoxy-1,2,3,4-tetrahydroisoquinoline]: 3.61 µM; `COc1cc2c(cc1OCc1ccccc1)CCNC2/C=C/c1cn(C)c2ncccc12` (stereo not drawn) [DP, 6-(benzyloxy)-7-methoxy-1-[(E)-2-{1-methyl-1H-pyrrolo[2,3-b]pyridin-3-yl}ethenyl]-1,2,3,4-tetrahydroisoquinoline]: 1.3 µM; `COc1cc2c(cc1OCc1ccccc1)CCNC2/C=C/c1cccc(-c2ccncc2)c1` (stereo not drawn) [DQ, 6-(benzyloxy)-7-methoxy-1-[(E)-2-[3-(pyridin-4-yl)phenyl]ethenyl]-1,2,3,4-tetrahydroisoquinoline]: 4.4 µM.
Same read-out and setting: next, `COc1cc2c(cc1OCc1ccccc1)CCNC2/C=C/c1cscn1` (stereo not drawn) [DR, 6-(benzyloxy)-7-methoxy-1-[(E)-2-(1,3-thiazol-4-yl)ethenyl]-1,2,3,4-tetrahydroisoquinoline]: 25.4 µM.
As to `COc1cc2c(cc1OCc1ccccc1)CCNC2/C=C/c1ccc(-c2cncnc2)cc1` (stereo not drawn) [DS, 6-(benzyloxy)-7-methoxy-1-[(E)-2-[4-(pyrimidin-5-yl)phenyl]ethenyl]-1,2,3,4-tetrahydroisoquinoline], the CC50 at 96 h came out at 7.39 µM.
Consider `COc1cc2c(cc1OCc1ccccc1)CCNC2/C=C/c1ccc(-n2cncn2)cc1` (stereo not drawn) [DT, 6-(benzyloxy)-7-methoxy-1-[(E)-2-[4-(1H-1,2,4-triazol-1-yl)phenyl]ethenyl]-1,2,3,4-tetrahydroisoquinoline], for which the midpoint of cytotoxicity, the CC50 at 96 h, lay at 7.39 µM.
For the molecule `COc1cc2c(cc1OCc1ccccc1)CCNC2/C=C/c1cc2ccccc2s1` (stereo not drawn) [DU, 1-[(E)-2-(1-benzothiophen-2-yl)ethenyl]-6-(benzyloxy)-7-methoxy-1,2,3,4-tetrahydroisoquinoline], the midpoint of cytotoxicity, the CC50 at 96 h, lay at 16.3 µM.
Take `COc1cc2c(cc1OCc1ccccc1)CCNC2/C=C/c1nccs1` (stereo not drawn) [DV, 6-(benzyloxy)-7-methoxy-1-[(E)-2-(1,3-thiazol-2-yl)ethenyl]-1,2,3,4-tetrahydroisoquinoline]: the CC50 at 96 h was found to be 21.8 µM.
`COc1cc2c(cc1OCc1ccccc1)CCNC2/C=C/c1ccc(N2CCN(C)CC2)cc1` (stereo not drawn) [DW, 6-(benzyloxy)-7-methoxy-1-[(E)-2-[4-(4-methylpiperazin-1-yl)phenyl]ethenyl]-1,2,3,4-tetrahydroisoquinoline] gave a CC50 at 96 h of 2.31 µM.
Same read-out and setting: the figure for `COc1cc2c(cc1OCc1ccccc1)CCNC2/C=C/c1ccccc1N1CCCCC1` (stereo not drawn) [DX, 6-(benzyloxy)-7-methoxy-1-[(E)-2-[2-(piperidin-1-yl)phenyl]ethenyl]-1,2,3,4-tetrahydroisoquinoline] is 5.38 µM; for `COc1cc2c(cc1OCc1ccccc1)CCNC2/C=C/c1scnc1C` (stereo not drawn) [DY, 6-(benzyloxy)-7-methoxy-1-[(E)-2-(4-methyl-1,3-thiazol-5-yl)ethenyl]-1,2,3,4-tetrahydroisoquinoline] it is 21.6 µM.
The molecule `COc1cc2c(cc1OCc1ccccc1)CCNC2/C=C/c1ccc(-c2ccccn2)cc1` (stereo not drawn) [DZ, 6-(benzyloxy)-7-methoxy-1-[(E)-2-[4-(pyridin-2-yl)phenyl]ethenyl]-1,2,3,4-tetrahydroisoquinoline] yielded a 50% cytotoxic concentration (CC50) at 96 h of 5.8 µM.
On to `COc1cc2c(cc1OCc1ccccc1)CCNC2/C=C/c1ccc(N2CCCCC2)cc1` (stereo not drawn) [EA, 6-(benzyloxy)-7-methoxy-1-[(E)-2-[4-(piperidin-1-yl)phenyl]ethenyl]-1,2,3,4-tetrahydroisoquinoline], for which the CC50 at 96 h came out at 4.8 µM.
Turning to `COc1cc2occc2cc1/C=C/C1NCCc2cc(OCc3ccccc3)c(OC)cc21` (stereo not drawn) [EB, 6-(benzyloxy)-7-methoxy-1-[(E)-2-(6-methoxy-1-benzofuran-5-yl)ethenyl]-1,2,3,4-tetrahydroisoquinoline], the midpoint of cytotoxicity, the CC50 at 96 h, lay at 6 µM.
Still for that read-out and setting: the figure for `COc1cc2c(cc1OCc1ccccc1)CCNC2/C=C/c1cccc(-c2ncco2)c1` (stereo not drawn) [EC, 6-(benzyloxy)-7-methoxy-1-[(E)-2-[3-(1,3-oxazol-2-yl)phenyl]ethenyl]-1,2,3,4-tetrahydroisoquinoline] is 7.5 µM.
Same read-out and setting: the figure for `COc1cc2c(cc1OCc1ccccc1)CCNC2/C=C/c1ccc(-c2ncco2)cc1` (stereo not drawn) [ED, 6-(benzyloxy)-7-methoxy-1-[(E)-2-[4-(1,3-oxazol-2-yl)phenyl]ethenyl]-1,2,3,4-tetrahydroisoquinoline] is 7.5 µM; for `CCOC(=O)c1coc(-c2ccc(/C=C/C3NCCc4cc(OCc5ccccc5)c(OC)cc43)cc2)n1` (stereo not drawn) [EE, ethyl 2-{4-[(E)-2-[6-(benzyloxy)-7-methoxy-1,2,3,4-tetrahydroisoquinolin-1-yl]ethenyl]phenyl}-1,3-oxazole-4-carboxylate] it is 5.9 µM.
On the same count and under the same terms, next, `CCOC(=O)c1coc(-c2cccc(/C=C/C3NCCc4cc(OCc5ccccc5)c(OC)cc43)c2)n1` (stereo not drawn) [EF, ethyl 2-{3-[(E)-2-[6-(benzyloxy)-7-methoxy-1,2,3,4-tetrahydroisoquinolin-1-yl]ethenyl]phenyl}-1,3-oxazole-4-carboxylate]: 5.9 µM.
`COc1cc2c(cc1OCc1ccccc1)CCNC2/C=C/c1ccc2c(c1)OCC2` (stereo not drawn) [EG, 6-(benzyloxy)-1-[(E)-2-(2,3-dihydro-1-benzofuran-6-yl)ethenyl]-7-methoxy-1,2,3,4-tetrahydroisoquinoline] registered a CC50 at 96 h of 19.3 µM.
Same read-out and setting: next, `COc1cc(OC)c(/C=C/C2NCCc3cc(OCc4ccccc4)c(OC)cc32)cc1C` (stereo not drawn) [EH, 6-(benzyloxy)-1-[(E)-2-(2,4-dimethoxy-5-methylphenyl)ethenyl]-7-methoxy-1,2,3,4-tetrahydroisoquinoline]: 3.59 µM; `COc1ccc(/C=C/C2NCCc3cc(OCc4ccccc4)c(OC)cc32)cc1C` (stereo not drawn) [EI, 6-(benzyloxy)-7-methoxy-1-[(E)-2-(4-methoxy-3-methylphenyl)ethenyl]-1,2,3,4-tetrahydroisoquinoline]: 11.8 µM.
In the case of `COc1cccc(/C=C/C2NCCc3cc(OCc4ccccc4)c(OC)cc32)c1` (stereo not drawn) [EJ, 6-(benzyloxy)-7-methoxy-1-[(E)-2-(3-methoxyphenyl)ethenyl]-1,2,3,4-tetrahydroisoquinoline], the CC50 at 96 h under setting [1] is 10 µM.
As for `COc1ccc(OC)c(/C=C/C2NCCc3cc(OCc4ccccc4)c(OC)cc32)c1` (stereo not drawn) [EK, 6-(benzyloxy)-1-[(E)-2-(2,5-dimethoxyphenyl)ethenyl]-7-methoxy-1,2,3,4-tetrahydroisoquinoline], under setting [1], the CC50 at 96 h amounted to 3.6 µM.
`COc1cc2c(cc1OCc1ccccc1)CCNC2/C=C/c1ccc(OC)c(C)c1C` (stereo not drawn) [EL, 6-(benzyloxy)-7-methoxy-1-[(E)-2-(4-methoxy-2,3-dimethylphenyl)ethenyl]-1,2,3,4-tetrahydroisoquinoline] gave a CC50 at 96 h of 3.25 µM.
With `COc1ccc(/C=C/C2NCCc3cc(OCc4ccccc4)c(OC)cc32)cc1CN1CCCCC1` (stereo not drawn) [EM, 6-(benzyloxy)-7-methoxy-1-[(E)-2-[4-methoxy-3-(piperidin-1-ylmethyl)phenyl]ethenyl]-1,2,3,4-tetrahydroisoquinoline], the midpoint of cytotoxicity, the CC50 at 96 h, lay at 1.8 µM.

What is called CC50 is the concentration giving 50% cytotoxicity.
